# According to PMC10498496, “Design and Synthesis of Poly(2,2′-Bipyridyl) Ligands for Induction of Cell Death in Cancer Cells: Control of Anticancer Activity by Complexation/Decomplexation with Biorelevant Metal Cations” (Inorganic Chemistry, 2023):
# Where two headings read alike, the source gives them in different places.
# Experiments:
# Type in all cases: cell-based, human
# U937 cells = test: MTT assay, cytotoxicity against U937 cells; details: MTT, 37 °C, treated for 24 h, read-out: EC50 against U937
# Description: (§1) Second, we conducted the quantitative evaluation of the cytotoxicity of 1, 2, and 3 against various cancer cell lines by an MTT (3-(4,5-dimethylthiazol-2-yl)-2,5-diphenyltetrazolium bromide) assay. Jurkat, MOLT-4 (these two cell lines are human T-lymphocyte leukemia cells), and U937 (human lymphoma) cells (1.5 × 10^4 cells/well) were incubated in RPMI 1640 medium containing 10% FBS (fetal bovine serum) containing 1, 2, and 3 (0–25 μM) at 37 °C for 24 h, and then treated with the MTT reagent. A549 (human alveolar adenocarcinoma) and IMR-90 (normal human fetal lung fibroblast as model of normal cells) cells (1.5 × 10^4 cells/well) were incubated in DMEM (low glucose) with 10% FBS containing 1, 2, and 3 (0–25 μM), HeLa S3 (human epithelial carcinoma cells) cells (1.5 × 10^4 cells/well) were incubated in MEM with 10% FBS containing these ligands (0–25 μM) for 24 h at 37 °C and then treated with the MTT reagent.
# (§2) • (a) Cytotoxic study. Jurkat cells, MOLT-4 cells, and U937 cells (1.5 × 10^5 cells/mL per one well) were incubated in 10% FBS RPMI 1640 medium containing 1 (0–25 μM), 2 (0–25 μM) , 3, cisplatin (0–100 μM), and actinomycin D (0–10 μM) under 5% CO2 at 37 °C for 24 h on 96 well plates (Watson), 0.5% MTT (3-(4,5-dimethyl-2-thiazolyl)-2,5-diphenyl-2H-tetrazolium bromide) reagent in PBS (10 μL) was then added to the cells. After incubation at 37 °C for 4 h, a formazan lysis solution (10% SDS in 0.01 N HCl) (100 μL) was added and the resulting solution was incubated overnight under the same conditions, followed by the measurement of absorbance at 570 nm with a microplate reader (BIO-RAD).
# Jurkat cells [1] = test: MTT assay in the presence of the caspase inhibitor Z-VAD-fmk; details: Z-VAD-fmk 15 μM 3 h
# Excerpt: We, therefore, selected Jurkat cells to study the cell death mechanism in detail, in this work. Programmed cell death (PCD) is generally classified into several types such as apoptosis, necroptosis, paraptosis, autophagic cell death, and so on.[30]−[33] We hypothesized that 1 and 2 function as inducers of apoptosis, which is a type of PCD in cancer cells, based on the morphological change of Jurkat cells observed in Figure 1 and mechanism of chelation therapy proposed in the previous studies.[11]−[19] It is known that the caspases family are cysteine proteases that play important roles in apoptosis and necroptosis.[38] Therefore, the effect of Z-VAD-fmk, which is known as one of general caspase inhibitors, on the cell death induced by 1 and cisplatin was examined.
# Figure 3 Effect of Z-VAD-fmk on the cell death in Jurkat cells induced by 1. Jurkat cells were incubated in RPMI in the presence of Z-VAD-fmk (15 μM) for 3 h and then treated with (a) 1 (1 μM) and (b) cisplatin (50 μM) for 24 h. Asterisks indicate significant difference with *(P ≤ 0.05).
# To investigate the mechanism responsible for the BAPTA-AM-induced cell death in Jurkat cells, Jurkat cells were incubated with Z-VAD-fmk (15 μM) for 3 h, and then cells were treated with BAPTA-AM (12.5 μM) for 24 h followed by an MTT assay.
# IMR-90 cells in DMEM medium with 10% FBS (1.5 × 10^5 cells/mL) were seeded in to 96 well plates and incubated for 24 h at 37 °C, MTT assays with poly(bpy) ligands and their metal complexes (0–100 μM), cisplatin (0–100 μM), and actinomycin D (0–10 μM) were performed following the same procedure described above. These experiments were carried out at least three times. • (b) MTT assay in the presence of a caspase inhibitor. […]
# HeLa S3 cells = test: MTT assay, cytotoxicity against HeLa S3 cells; details: MTT, 37 °C, read-out: EC50 against HeLa S3 (converted)
# Description: Second, we conducted the quantitative evaluation of the cytotoxicity of 1, 2, and 3 against various cancer cell lines by an MTT (3-(4,5-dimethylthiazol-2-yl)-2,5-diphenyltetrazolium bromide) assay. Jurkat, MOLT-4 (these two cell lines are human T-lymphocyte leukemia cells), and U937 (human lymphoma) cells (1.5 × 10^4 cells/well) were incubated in RPMI 1640 medium containing 10% FBS (fetal bovine serum) containing 1, 2, and 3 (0–25 μM) at 37 °C for 24 h, and then treated with the MTT reagent. […]
# HeLa S3 cells and A549 cells in MEM and DMEM medium with 10% FBS (1.5 × 10^5 cells/mL per one well) were seeded in to 96 well plates and incubated for 24 h, MTT assay of poly(bpy) ligands (0–25 μM), cisplatin (0–100 μM), and actinomycin D (0–10 μM) was performed according to the same procedure described above.
# Jurkat cells [2] = test: MTT assay, cytotoxicity against Jurkat cells; details: MTT, 37 °C, read-out: EC50 against Jurkat (converted)
# Description: as §1, §2
Structure (SMILES),EC50 (U937 cells) [µM],cell viability of Jurkat cells after preincubation with Z-VAD-fmk (Jurkat cells [1]; then compound 50 μM for 24 h),EC50 (HeLa S3 cells; treated for 24 h) [µM],EC50 (Jurkat cells [2]; treated for 24 h) [µM],"EC50 (U937 cells; Homo sapiens, U-937) [µM]",cell viability of Jurkat cells after preincubation with Z-VAD-fmk (Jurkat cells [1]; then compound 1 μM for 24 h),"EC50 (HeLa S3 cells; Homo sapiens, HeLa S3, treated for 24 h) [µM]","EC50 (HeLa S3 cells; Homo sapiens, HeLa S3, treated for 48 h) [µM]","EC50 (Jurkat cells [2]; Homo sapiens, Jurkat, treated for 24 h) [µM]","EC50 (Jurkat cells [2]; Homo sapiens, Jurkat, treated for 48 h) [µM]"
"N.N.[Cl][Pt][Cl] [cisplatin, reference compound]",24 ± 0.9,considerably restored,29 ± 1.2,33 ± 0.2,,,,,,
"c1ccc(-c2ccc(OCc3cc(COc4ccc(-c5ccccn5)nc4)cc(COc4ccc(-c5ccccn5)nc4)c3)cn2)nc1 [compound 1, 1,3,5-Tris(([2,2′-Bipyridin]-5-yloxy)methyl)benzene]",,,,,0.32 ± 0.22,considerably restored,16 ± 0.33,2.8,0.14 ± 0.13,0.064
